According to PMC6017342, “Discovery of Oxime Ethers as Hepatitis B Virus (HBV) Inhibitors by Docking, Screening and In Vitro Investigation” (Molecules : A Journal of Synthetic Chemistry and Natural …, 2018):
Several values for one entry are separate records, joined by “and”; a condition that tells them apart may be missing. Equal values may be shown once. Read-outs that look alike come from different tables or passages of the source.

How the values were obtained:
[1] = system: HepG2.2.15 cells; assay: Cytotoxicity on HepG2.2.15 cells (MTT assay, 9 days); type: cell-based, human; conditions: HepG 2.2.15 cell
Experimental: (§1) HepG2.2.15 (clonal cells derived from human hepatoma cell line G2) cells were provided by the Chinese Academy of Medical Sciences (P.R. China) and maintained in minimal essential medium (MEM) supplemented with 10% fetal bovine serum and 380 μg/mL of G418, 50 ug/mL of kanamycin, and 0.03% L-glutamine at 37 °C in a 5% CO2 atmosphere with 100% humidity.
(§2) HepG2.2.15 cells were seeded at a density of 1 × 10^5 cells/ml ([…]) in 96-well plates and maintained at 37 °C for 24 h prior to extract addition, followed by treatment with various concentrations of drugs. Lamivudine (3TC) was served as the positive control. Cells were treated with drug-containing fresh medium every 3 d for up to 9 d in a time-dependent experiment. Medium was taken at the 9th day of the treatment and stored at −20 °C until analysis. The IC50 and selected index (SI) of each compound were calculated, respectively.
Logarithmically growing cells were seeded in 96-well culture plates at a density of 1 × 10^5 cells/mL ([…]). They were cultured for 24 h and then treated with various concentrations of drugs. Optical density (OD) values were read at 450 nm after 9 days and the percentage of cell death was calculated; the cells were treated with drug-containing fresh medium every 3 d for up to 9 d. After drug treatment, the cytotoxicity was measured using the MTT assay.

[2] = system: secretion of HBsAg in HepG2.2.15 cells; assay: microbe, parasite or virus in culture; type: cell-based, Hepatitis B virus; conditions: for IC50 / HBsAg IC50: - = inhibition ratio less than 50% in the test concentration range
Source text: (§3) The anti-HBV activities of the compounds were expressed as the concentration of compound that achieved 50% inhibition (IC50) to the secretion of HBsAg and HBeAg. […] The cytotoxicity of compounds was expressed as the concentration of compound required to kill 50% (TC50) of the HepG2.2.15 cells.
as §1
as §2, with “Lamivudine (3TC) was served as the positive control.” left out
(§4) The levels of HBV surface antigen (HBsAg) and HBV e antigen (HBeAg) in the supernatant of the HepG2.2.15 cell were simultaneously detected using enzyme-linked immunosorbent assay (ELISA) kits (Rongsheng Biotechnology Co. Ltd., Shanghai, China) according to the manufacturer’s instructions.The synthesized derivatives were expressed as the concentration of compound that achieved 50% inhibition (IC50) to the secretion of HBsAg and HBeAg. The selectivity index (SI) was determined as the ratio of CC50 to IC50, which is a major pharmaceutical parameter of estimates possible for future clinical application.

[3] = system: secretion of HBeAg in HepG2.2.15 cells; assay: Inhibition of HBeAg secretion in HepG2.2.15 cells (ELISA); type: cell-based, Hepatitis B virus; conditions: 9 days
Source text: as §3, §1
as §2, with “Lamivudine (3TC) was served as the positive control.” left out
as §4

[4] = Hepatitis B virus, HepG2.2.15, 216 h, read-out: HBsAg IC50, HepG2.2.15 cells, 9 days, ELISA
[5] = Hepatitis B virus, HepG2.2.15, 216 h, ELISA, - = inhibition ratio less than 50% in the test concentration range
[6] = HepG2.2.15 cells, 9 days, ELISA
[7] = ELISA, - = inhibition ratio less than 50% in the test concentration range
[8] = HepG2.2.15 cells, 9 days, ELISA, read-out: HBsAg IC50

Row | Compound | TC50 (50% cytotoxicity concentration) [1] | IC50 [2, 4] | HBsAg SI (selectivity index = TC50/IC50) ([2]; HepG2.2.15 cells, 9 days) | IC50 [3, 5] | HBsAg IC50 [2, 6] | HBeAg SI (selectivity index = TC50/IC50) [3] | HBeAg IC50 [3, 7] | melting point | IC50 [2, 8] | IC50 [3, 7]
1 | Nc1ccn([C@@H]2CS[C@H](CO)O2)c(=O)n1 [Compound 3TC, Lamivudine, reference compound] | 517.40 µM | 291 µM | – | – | – | – | – | – | – | –
2 | CCOC(=O)CC/C(=N\OC)C(=O)c1ccc(C)cc1 [Compound 3a-1, Ethyl (E)-4-(4-methylbenzoyl)-4-[(methoxy)imino]butanoate] | >1500 µM | 293 µM | >5.12 | > 359 µM | – | – | – | – | – | –
3 | CCOC(=O)CC/C(=N\OC)c1ccc(OC)cc1 [Compound 3b-1, Ethyl (E)-4-(4-methoxyphenyl)-4-[(methoxy)imino]butanoate] | 1383.74 µM | > 293 µM | – | > 359 µM | inhibitory activity could be neglected | – | – | – | – | –
4 | CCOC(=O)CC/C(=N\OC)c1ccc(Cl)cc1 [Compound 3c-1, Ethyl (E)-4-(4-chlorophenyl)-4-[(methoxy)imino]butanoate] | 450.67 µM | 225 µM | 2.00 | > 359 µM | – | – | – | – | – | –
5 | CO/N=C(\CCC(=O)OCc1ccco1)c1ccc(OC)cc1 [Compound 4b-1, Furan-2-ylmethyl (E)-4-(4-methoxyphenyl)-4-[(methoxy)imino]butanoate] | 347.55 µM | 128 µM | 2.72 | > 359 µM | – | – | – | – | – | –
6 | COc1ccc(/C(CCC(=O)OCc2ccco2)=N/OCc2ccccc2)cc1 [Compound 4b-2, Furan-2-ylmethyl (E)-4-(4-methoxyphenyl)-4-[(benzyloxy)imino]butanoate] | 1153.49 µM | 234 µM | 4.94 | > 359 µM | – | – | – | – | – | –
7 | CO/N=C(\CCC(=O)OCc1ccco1)c1ccc(Cl)cc1 [Compound 4c-1, Furan-2-ylmethyl (E)-4-(4-chlorophenyl)-4-[(methoxy)imino]butanoate] | >1500 µM | > 293 µM | – | > 359 µM | non | – | – | – | – | –
8 | CO/N=C(\CCC(=O)Nc1ccccc1)c1ccc(OC)cc1 [Compound 5b-1, (E)-4-(4-Methoxyphenyl)-4-[(methoxy)imino]-N-phenylbutanamide] | 473.25 µM | 208 µM | 2.28 | > 359 µM | – | – | – | – | – | –
9 | CO/N=C(\CCC(=O)Nc1ccccc1)c1ccc(Cl)cc1 [Compound 5c-1, (E)-4-(4-Chlorophenyl)-4-[(methoxy)imino]-N-phenylbutanamide] | 1138.45 µM and >1500 µM | – | 28.51 | 246 µM | – | 4.63 | non | – | – | –
10 | O=C(CC/C(=N\OCc1ccccc1)c1ccc(Cl)cc1)Nc1ccccc1 [Compound 5c-2, (E)-4-(4-Chlorophenyl)-4-[(benzyloxy)imino]-N-phenylbutanamide] | – | – | – | – | – | – | – | 116 to 117.9 °C | – | –
11 | (E)-4-(4-Methoxyphenyl)-4-[(benzyloxy)imino]-N-phenylbutanamide [Compound 5b-2] | >1500 µM | – | >14.82 | – | – | >7.83 | – | – | 101 µM | 192 µM
12 | (E)-4-(4-Methylbenzoyl)-4-[(methoxy)imino]-N-phenylbutanamide [Compound 5a-1] | >1500 µM | – | >20.02 | – | – | >5.48 | – | – | 74.9 µM | 274 µM
13 | Ethyl (E)-4-(4-chlorophenyl)-4-[(benzyloxy)imino]butanoate [Compound 3c-2] | 127.10 µM | – | 1.34 | – | – | 1.34 | – | – | 94.7 µM | 93.9 µM
14 | Ethyl (E)-4-(4-methoxyphenyl)-4-[(benzyloxy)imino]butanoate [Compound 3b-2] | 429.88 µM | – | 4.95 | – | – | – | – | – | 86.9 µM | > 359 µM
15 | Ethyl (E)-4-(4-methylbenzoyl)-4-[(benzyloxy)imino]butanoate [Compound 3a-2] | >1500 µM | – | – | – | non | – | – | – | > 293 µM | > 359 µM
16 | Furan-2-ylmethyl (E)-4-(4-chlorophenyl)-4-[(benzyloxy)imino]butanoate [Compound 4c-2] | >1500 µM | – | – | – | – | – | – | – | > 293 µM | > 359 µM
17 | Furan-2-ylmethyl (E)-4-(4-methylbenzoyl)-4-[(benzyloxy)imino]butanoate [Compound 4a-2] | >1500 µM | – | – | – | non | – | – | – | > 293 µM | > 359 µM
